From patent US8513289B2, “P38 kinase inhibiting agents” (Merck Sharp & Dohme Corp., priority 2009, dated 2013) come the findings set out here.

The target in one assay is T1, p38-α (Homo sapiens, UniProt Q16539).
T1 construct: purchased Millipore
Description: p38 kinase assay, p38-α with peptide substrate (Caliper LabChip). The format is biochemical. The following applies: read-out: IC50 p38a*peptide. The protocol:
Alternatively, p38 kinase assays were performed in a reaction volume of 70 µL in a 384-well plate, at 30° for […] under the following conditions: 50 mM Hepes, pH 7.4, 10 mM MgCl2, 1 mg/ml FA Free BSA, 1 mM DTT, 10 μM ATP, 10 μM p38 peptide [Caliper Life Sciences FL-Peptide 8 (5-FAM-IPTSPITTTYFFEKKK-COOH)] and 5.7 nM p38-α (Millipore), or 14.3 nM unactivated MAPKAP kinase-2, 0.18 nM p38-α (Millipore) and 2 uM RSK peptide [Caliper Life Sciences FL-Peptide 11 (5-FAM-KKLNRTLSVA-COOH)]. Serial dilutions of compounds were added to each reaction in 700 nL DMSO. 700 nL of DMSO was added to the control wells of the reaction plate as the no inhibitor control for each inhibitor titration. The reaction was terminated by the addition of 15 μL of a 100 mM EDTA. Product formation was analyzed using the Caliper LabChip 3000. The Separation buffer contained 100 mM HEPES pH 7.5, 0.015% Brij-35, 2.5% Coating Reagent #3 (Caliper Life Sciences) and 10 mM EDTA. Calculation of the substrate product ratios are performed using the HTS Well Analyzer software provided by Caliper Life Sciences and the percent inhibition at each compound concentration is determined.

The subject of the next assay is hWB. Description: IC50 hWB (TNF-α release assay). The following applies: Homo sapiens. The format is cell-based.

In general, IC50 refers to the concentration needed to halve the response being measured.

T1 sequence (Q16539 whole entry): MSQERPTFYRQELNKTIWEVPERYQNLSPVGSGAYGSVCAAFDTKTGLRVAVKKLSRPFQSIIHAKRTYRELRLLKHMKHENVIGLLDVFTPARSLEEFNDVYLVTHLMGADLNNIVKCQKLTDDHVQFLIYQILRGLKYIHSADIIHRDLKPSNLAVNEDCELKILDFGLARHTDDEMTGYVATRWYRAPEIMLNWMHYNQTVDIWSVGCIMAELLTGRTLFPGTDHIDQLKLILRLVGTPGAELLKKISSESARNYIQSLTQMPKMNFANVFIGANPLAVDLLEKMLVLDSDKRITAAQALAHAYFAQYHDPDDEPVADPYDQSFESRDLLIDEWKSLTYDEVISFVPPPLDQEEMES

For the compound `O=C(NCc1nnc(-c2cccnc2)s1)c1cc(C(=O)c2c(F)cc(F)cc2F)c[nH]1` [Example 13, N-[(5-pyridin-3-yl-1,3,4-thiadiazol-2-yl)methyl]-4-(2,4,6-trifluorobenzoyl)-1H-pyrrole-2-carboxamide], the half-maximal inhibitory concentration (IC50) is 40 nM on p38-α and 747 nM with hWB.

As for `O=C(NCc1nnc(-c2ccc[nH]2)s1)c1cc(C(=O)c2c(F)cc(F)cc2F)c[nH]1` [Example 14, N-{[5-(1H-pyrrol-2-yl)-1,3,4-thiadiazol-2-yl]methyl}-4-(2,4,6-trifluorobenzoyl)-1H-pyrrole-2-carboxamide], the 50% inhibitory concentration (IC50) is 121 nM on p38-α and 1270 nM with hWB.

Take `O=C(NCc1nnc(-c2ccco2)s1)c1cc(C(=O)c2c(F)cc(F)cc2F)c[nH]1` [Example 15, N-{[5-(2-furyl)-1,3,4-thiadiazol-2-yl]methyl}-4-(2,4,6-trifluorobenzoyl)-1H-pyrrole-2-carboxamide]: the IC50 came out at 98 nM on p38-α and 614 nM with hWB.

With `COc1ccc(-c2nnc(CNC(=O)c3cc(C(=O)c4c(F)cc(F)cc4F)c[nH]3)s2)cn1` [Example 17, N-{[5-(6-methoxypyridin-3-yl)-1,3,4-thiadiazol-2-yl]methyl}-4-(2,4,6-trifluorobenzoyl)-1H-pyrrole-2-carboxamide], the IC50 at p38-α is 78 nM; with hWB it was 2820 nM.

Regarding `Cc1cc(-c2nnc(CNC(=O)c3cc(C(=O)c4c(F)cc(F)cc4F)c[nH]3)s2)[nH]n1` [Example 20, N-{[5-(3-methyl-1H-pyrazol-5-yl)-1,3,4-thiadiazol-2-yl]methyl}-4-(2,4,6-trifluorobenzoyl)-1H-pyrrole-2-carboxamide], the IC50 at p38-α was 22 nM; in the assay on hWB it was 262 nM.

Take `O=C(NCc1nnc(-c2cnccn2)s1)c1cc(C(=O)c2c(F)cc(F)cc2F)c[nH]1` [Example 21, N-[(5-pyrazin-2-yl-1,3,4-thiadiazol-2-yl)methyl]-4-(2,4,6-trifluorobenzoyl)-1H-pyrrole-2-carboxamide]: the IC50 at p38-α is 78 nM; in the assay on hWB, 815 nM.

With `CC(C)c1cc(-c2nnc(CNC(=O)c3cc(C(=O)c4c(F)cc(F)cc4F)c[nH]3)s2)[nH]n1` [Example 25, N-{[5-(3-isopropyl-1H-pyrazol-5-yl)-1,3,4-thiadiazol-2-yl]methyl}-4-(2,4,6-trifluorobenzoyl)-1H-pyrrole-2-carboxamide], the values for the concentration for half-maximal inhibition (IC50) at p38-α and in the assay on hWB were 10 nM and 90 nM, respectively.

Take `CC(C)Cc1cc(-c2nnc(CNC(=O)c3cc(C(=O)c4c(F)cc(F)cc4F)c[nH]3)s2)[nH]n1` [Example 26, N-{[5-(3-isobutyl-1H-pyrazol-5-yl)-1,3,4-thiadiazol-2-yl]methyl}-4-(2,4,6-trifluorobenzoyl)-1H-pyrrole-2-carboxamide]: the IC50 on p38-α was 24 nM; in the assay with hWB, 163 nM.

Take `O=C(NCc1nnc(-c2n[nH]c3ccccc23)s1)c1cc(C(=O)c2c(F)cc(F)cc2F)c[nH]1` [Example 28, N-{[5-(1H-indazol-3-yl)-1,3,4-thiadiazol-2-yl]methyl}-4-(2,4,6-trifluorobenzoyl)-1H-pyrrole-2-carboxamide]: the IC50 amounted to 69 nM at p38-α and 360 nM in the assay with hWB.

Regarding `O=C(NCc1nnc(-c2cc3ncccn3n2)s1)c1cc(C(=O)c2c(F)cc(F)cc2F)c[nH]1` [Example 29], the 50% inhibitory concentration (IC50) was found to be 17 nM at p38-α and 885 nM with hWB.

Consider `O=C(NCc1nnc(-c2ccn[nH]2)s1)c1cc(C(=O)c2c(F)cc(F)cc2F)c[nH]1` [Example 32, N-{[5-(1H-pyrazol-5-yl)-1,3,4-thiadiazol-2-yl]methyl}-4-(2,4,6-trifluorobenzoyl)-1H-pyrrole-2-carboxamide], for which the IC50 at p38-α is 43 nM; in the assay with hWB, 84 nM.

Regarding `O=C(NCc1nnc(-c2ccc[nH]c2=O)s1)c1cc(C(=O)c2c(F)cc(F)cc2F)c[nH]1` [Example 35, N-{[5-(2-oxo-1,2-dihydropyridin-3-yl)-1,3,4-thiadiazol-2-yl]methyl}-4-(2,4,6-trifluorobenzoyl)-1H-pyrrole-2-carboxamide], the concentration for half-maximal inhibition (IC50) was determined as 37.5 nM at p38-α and 168 nM in the assay on hWB.

Turning to `O=C(NCc1nnc(-c2ccc[nH]c2=O)s1)c1cc(Cc2c(F)cc(F)cc2F)c[nH]1` [Example 43, N-{[5-(2-oxo-1,2-dihydropyridin-3-yl)-1,3,4-thiadiazol-2-yl]methyl}-4-(2,4,6-trifluorobenzyl)-1H-pyrrole-2-carboxamide], the results for the IC50 on p38-α and with hWB were 259 nM and 1880 nM, respectively.

For the compound `O=C(NCc1nnc(-c2ccn[nH]2)s1)c1cc(Cc2c(F)cc(F)cc2F)c[nH]1` [Example 45, N-{[5-(1H-pyrazol-5-yl)-1,3,4-thiadiazol-2-yl]methyl}-4-(2,4,6-trifluorobenzyl)-1H-pyrrole-2-carboxamide], the results for the IC50 at p38-α and in the assay with hWB were 354 nM and 1360 nM, respectively.

Take `Cc1cc(-c2nnc(CNC(=O)c3cc(Cc4c(F)cc(F)cc4F)c[nH]3)s2)[nH]n1` [Example 46, N-{[5-(3-methyl-1H-pyrazol-5-yl)-1,3,4-thiadiazol-2-yl]methyl}-4-(2,4,6-trifluorobenzyl)-1H-pyrrole-2-carboxamide]: the IC50 on p38-α was 243 nM; in the assay on hWB it was 3270 nM.
